Paper PMC3281193, “Quinol derivatives as potential trypanocidal agents” (Bioorganic & Medicinal Chemistry, 2012)
Read-outs that look alike come from different tables or passages of the source.

Columns and labels:
[1] = system: blood stream form T. brucei; test: 96-well HTS assay against blood stream form T. brucei; type: cell-based, Trypanosoma brucei; settings: for EC50: Trypanosoma brucei
Procedure: (§1) The 96-well HTS assays against blood stream form T. brucei[38] and MRC5 cells were carried out as reported previously.[39] The manual assays performed on the AT1 double knock out T. brucei and wild type T. brucei were conducted as described by Jones et al.[39]

MRC5 cells [2] = test: cells; type: cell-based, human; settings: Homo sapiens, MRC5, read-out: EC50 MRC5 (SD, n)
Procedure: as §1

T. brucei AT1 KO = test: 96-well manual assay on AT1 double knock out T. brucei (P2 transporter knock out); type: cell-based, Trypanosoma brucei; settings: for EC50: Trypanosoma brucei, read-out: T. brucei AT1 KO EC50 (SD); for Cell line selectivity: EC50 (AT1 KO)/EC50 (WT): manual assay
Procedure: In order to determine if analogues 35, 38, 44 and 46 are substrates for the P2 transporter they were assayed against a line of T. brucei lacking the gene which codes for the P2 transporter (Table 2).[33] […] Compounds 8 and 19,[25] which contain the triazole and indolyl quinol pharmacophore respectively, but lack a P2 motif, served as negative controls.
as §1

wild type T. brucei = test: 96-well manual assay on wild type T. brucei; type: cell-based; settings: Trypanosoma brucei, read-out: T. brucei EC50 (SD)
Procedure: In order to determine if analogues 35, 38, 44 and 46 are substrates for the P2 transporter they were assayed against a line of T. brucei lacking the gene which codes for the P2 transporter (Table 2).[33] If the analogues are transported they would be expected to show greater potency against wild type T. brucei than against the P2 knock out line. Compounds 8 and 19,[25] which contain the triazole and indolyl quinol pharmacophore respectively, but lack a P2 motif, served as negative controls.
as §1

in vitro = type: cell-based, human; settings: human
Procedure: as §1

MRC5 cells [3] = system: MRC5 cells; design: method as in PMID 21212280; settings: Table 1; data taken from Konig et al.; cited from earlier work
[4] = system: blood stream form T. brucei; design: method as in PMID 21212280; settings: cited from earlier work; for EC50: Table 1, data taken from Konig et al.
[5] = Table 1, arithmetic mean of independent determinations, read-out: EC50 T. brucei (SD, n)
[6] = Table 2, 96-well HTS assay, blood stream form T. b. brucei, read-out: T. brucei EC50 (SD, n)
[7] = Table 2, 96-well manual assay, wild type, weighted mean of three independent experiments

Which EC50 [1, 5] does the source give for `O=C1C=CC(O)(c2cc3ccccc3n2S(=O)(=O)c2ccc(CCCN3CCOCC3)cc2)C=C1` [Compound 23] here?
The EC50 was 26 nM.

What about the EC50 (MRC5 cells [2]) of the same compound?
Its EC50 is 79 nM.

For `COC(=O)CCc1ccc(S(=O)(=O)n2c(C3(O)C=CC(=O)C=C3)cc3ccccc32)cc1` [Compound 19, Methyl 3-(4-((2-(1-hydroxy-4-oxocyclohexa-2,5-dien-1-yl)-1H-indol-1-yl)sulfonyl)phenyl) propanoate], which EC50 (T. brucei AT1 KO) is on record?
Its EC50 is 80 nM.

What about the “Cell line selectivity: EC50 (AT1 KO)/EC50 (WT)” value (“Cell line selectivity: EC50” below) (T. brucei AT1 KO) of the same compound?
The value was 1.3.

And the EC50 [1, 5]?
The EC50 was 160 nM.

And the EC50 [1, 6]?
The EC50 was 160 nM.

And the EC50 (wild type T. brucei; [7])?
Its EC50 is 60 nM.

And the EC50 (in vitro)?
The EC50 was 280 nM.

What about the EC50 (MRC5 cells [2]) of the same compound?
Its EC50 is 280 nM.

Which EC50 (T. brucei AT1 KO) does the source give for `Nc1nc(N)nc(NCCCNC(=O)CCc2ccc(S(=O)(=O)n3c(C4(O)C=CC(=O)C=C4)cc4ccccc43)cc2)n1` [Compound 46, N-(3-((4,6-Diamino-1,3,5-triazin-2-yl)amino)propyl)-3-(4-((2-(1-hydroxy-4-oxocyclohexa-2,5-dien-1-yl)-1H-indol-1-yl)sulfonyl)phenyl)propanamide] here?
Its EC50 is 1800 nM.

What about the “Cell line selectivity: EC50” value (T. brucei AT1 KO) of the same compound?
The value was 1.1.

What about the EC50 [1, 6] of the same compound?
Its EC50 is 3200 nM.

What about the EC50 (wild type T. brucei; [7]) of the same compound?
The EC50 was 1700 nM.

What about the EC50 (in vitro) of the same compound?
Its EC50 is 18000 nM.

With `Oc1ccc(-c2nc3ccccc3s2)cc1` [Compound 7] as the compound, how does the EC50 (MRC5 cells [3]) read?
The EC50 was over 50000 nM.

And the EC50 [4]?
Its EC50 is over 50000 nM.

What about the “activity against T. brucei in words” value [4] of the same compound?
The value was “inactive”.

What does the source list for `COc1ccc(-n2cc(C3(O)C=CC(=O)C=C3)nn2)cc1` [Compound 8]?
EC50 (T. brucei AT1 KO): 74 nM; Cell line selectivity: EC50 (AT1 KO)/EC50 (WT) (T. brucei AT1 KO): 0.78; EC50 (wild type T. brucei): 95 nM

With `COc1ccc(Cn2cc(C3(O)C=CC(=O)C=C3)nn2)cc1` [Compound 9] as the compound, how does the EC50 [1, 5] read?
The EC50 was 160 nM.

What about the EC50 (MRC5 cells [2]) of the same compound?
The EC50 was 450 nM.

With `N=C(N)c1ccc(/N=N/Nc2ccc(C(=N)N)cc2)cc1` [Berenil, reference compound] as the compound, how does the EC50 (T. brucei AT1 KO) read?
Its EC50 is 330 nM.

And the “Cell line selectivity: EC50” value (T. brucei AT1 KO)?
The value was 11.

What about the EC50 (wild type T. brucei; [7]) of the same compound?
The EC50 was 31 nM.

With `O=C1C=CC(O)(C#Cc2ccc(CC(=O)Nc3ccccc3)cc2)C=C1` [Compound 3, 2-(4-((1-Hydroxy-4-oxocyclohexa-2,5-dien-1-yl)ethynyl)phenyl)-N-phenylacetamide] as the compound, how does the EC50 [1, 5] read?
The EC50 was 2200 nM.

What about the EC50 (MRC5 cells [2]) of the same compound?
The EC50 was 670 nM.

What does the source list for `Nc1nc(N)nc(-n2cc(C3(O)C=CC(=O)C=C3)nn2)n1` [Compound 38, 4-(1-(4,6-Diamino-1,3,5-triazin-2-yl)-1H-1,2,3-triazol-4-yl)-4-hydroxycyclohexa-2,5-dienone]?
EC50 (T. brucei AT1 KO): 3800 nM; Cell line selectivity: EC50 (AT1 KO)/EC50 (WT) (T. brucei AT1 KO): 1.0; EC50 [1, 6]: 6200 nM; EC50 (wild type T. brucei; [7]): 3800 nM; EC50 (in vitro): > 50000 nM

With `O=C1C=CC(O)(c2cc3ccccc3n2S(=O)(=O)c2ccc(CCC(=O)O)cc2)C=C1` [Compound 42, 3-(4-((2-(1-Hydroxy-4-oxocyclohexa-2,5-dien-1-yl)-1H-indol-1-yl)sulfonyl)phenyl)propanoic acid] as the compound, how does the EC50 [1, 6] read?
The EC50 was 740 nM.

And the EC50 (in vitro)?
Its EC50 is 3300 nM.

What does the source list for `CN1CCN(C(=O)CCc2ccc(S(=O)(=O)n3c(C4(O)C=CC(=O)C=C4)cc4ccccc43)cc2)CC1` [Compound 22]?
EC50 [1, 5]: 18 nM; EC50 (MRC5 cells [2]): 52 nM

What does the source list for `Cc1ccc(S(=O)(=O)n2c(C3(O)C=CC(=O)C=C3)cc3ccncc32)cc1` [Compound 16]?
activity against T. brucei in words [1]: low nanomolar range; EC50 [1, 5]: 26 nM; EC50 (MRC5 cells [2]): 44 nM

For `C#CC1(O)C=CC(=O)C=C1` [Compound 1, 4-Ethynyl-4-hydroxycyclohexa-2,5-dienone], which EC50 [1, 5] is on record?
Its EC50 is 2000 nM.

And the EC50 (MRC5 cells [2])?
Its EC50 is 2100 nM.

For `O=C1C=CC(O)(c2cn(CCC(=O)Nc3ccccc3)nn2)C=C1` [Compound 12, 3-(4-(1-Hydroxy-4-oxocyclohexa-2,5-dien-1-yl)-1H-1,2,3-triazol-1-yl)-N-phenylpropanamide], which EC50 [1, 5] is on record?
Its EC50 is 2700 nM.

What about the EC50 (MRC5 cells [2]) of the same compound?
The EC50 was 18000 nM.

For `O=C1C=CC(O)(c2cc3ccccc3n2S(=O)(=O)c2ccc(CCCO)cc2)C=C1` [Compound 20], which EC50 [1, 5] is on record?
Its EC50 is 24 nM.

What about the EC50 (MRC5 cells [2]) of the same compound?
The EC50 was 51 nM.

What does the source list for `N=C(N)c1ccc(-n2cc(C3(O)C=CC(=O)C=C3)nn2)cc1` [Compound 35, 4-(4-(1-Hydroxy-4-oxocyclohexa-2,5-dienyl)-1H-1,2,3-triazol-1-yl)benzimidamide]?
EC50 (T. brucei AT1 KO): 6000 nM; Cell line selectivity: EC50 (AT1 KO)/EC50 (WT) (T. brucei AT1 KO): 1.2; EC50 [1, 6]: 11000 nM; EC50 (wild type T. brucei; [7]): 5000 nM; EC50 (in vitro): > 50000 nM

Which results are given for `CN1CCN(CCCc2ccc(S(=O)(=O)n3c(C4(O)C=CC(=O)C=C4)cc4ccccc43)cc2)CC1` [Compound 24]?
EC50 [1, 5]: 16 nM; EC50 (MRC5 cells [2]): 50 nM

Which EC50 [1, 5] does the source give for `CCOC(=O)Nc1ccc(S(=O)(=O)n2c(C3(O)C=CC(=O)C=C3)cc3ccccc32)cc1` [Compound 17] here?
The EC50 was 50 nM.

And the EC50 (MRC5 cells [2])?
Its EC50 is 86 nM.

With `CC(=O)NCCc1ccc(S(=O)(=O)n2c(C3(O)C=CC(=O)C=C3)cc3ccccc32)cc1` [Compound 18] as the compound, how does the “activity against T. brucei in words” value [1] read?
The value was “low nanomolar range”.

And the EC50 [1, 5]?
Its EC50 is 12 nM.

What about the EC50 (MRC5 cells [2]) of the same compound?
The EC50 was 36 nM.

With `O=C1C=CC(O)(c2cc3cnccc3n2S(=O)(=O)c2ccccc2)C=C1` [Compound 15] as the compound, how does the “activity against T. brucei in words” value [1] read?
Its value is “low nanomolar range”.

And the EC50 [1, 5]?
Its EC50 is 22 nM.

What about the EC50 (MRC5 cells [2]) of the same compound?
Its EC50 is 41 nM.

Which results are given for `Nc1nc(N)nc(NCCCOC(=O)CCc2ccc(S(=O)(=O)n3c(C4(O)C=CC(=O)C=C4)cc4ccccc43)cc2)n1` [Compound 44, 3-((4,6-Diamino-1,3,5-triazin-2-yl)amino)propyl 3-(4-((2-(1-hydroxy-4-oxocyclohexa-2,5-dien-1-yl)-1H-indol-1-yl)sulfonyl)phenyl)propanoate]?
EC50 (T. brucei AT1 KO): 260 nM; Cell line selectivity: EC50 (AT1 KO)/EC50 (WT) (T. brucei AT1 KO): 1.0; EC50 [1, 6]: 350 nM; EC50 (wild type T. brucei; [7]): 250 nM; EC50 (in vitro): 950 nM

Which “activity against T. brucei in words” value [1] does the source give for `O=C1C=CC(O)(c2cn(-c3ccc4ncsc4c3)nn2)C=C1` [Compound 10] here?
The value was “low nanomolar range”.

And the EC50 [1, 5]?
Its EC50 is 27 nM.

And the EC50 (MRC5 cells [2])?
The EC50 was 69 nM.

With `CS(=O)(=O)c1ccc(S(=O)(=O)n2c(C3(O)C=CC(=O)C=C3)cc3ccccc32)cc1` [Compound 25] as the compound, how does the EC50 [1, 5] read?
Its EC50 is 24 nM.

What about the EC50 (MRC5 cells [2]) of the same compound?
Its EC50 is 39 nM.

For `CC(=O)OC[C@H]1O[C@@H](n2cc(C3(O)C=CC(=O)C=C3)nn2)[C@H](OC(C)=O)[C@@H](OC(C)=O)[C@H]1OC(C)=O` [Compound 11], which EC50 [1, 5] is on record?
Its EC50 is 10000 nM.

And the EC50 (MRC5 cells [2])?
The EC50 was over 50000 nM.

For `Nc1nc(N)nc(Nc2ccc([As]3SCC(CO)S3)cc2)n1` (centres unmarked) [melarsoprol, reference compound], which EC50 ([1]; read-out: EC50 against T. brucei) is on record?
Its EC50 is 33 nM.

With `N=C(N)c1ccc(OCCCCCOc2ccc(C(=N)N)cc2)cc1` [pentamidine, reference compound] as the compound, how does the EC50 ([1]; reference drugs assayed under identical conditions, read-out: EC50 against T. brucei) read?
The EC50 was 8 nM.

For `O=C1C=CC(O)(c2nc3ccccc3s2)C(Cl)=C1` (centres unmarked) [Compound 6], which “activity against T. brucei in words” value [1] is on record?
The value was “low nanomolar range”.

And the EC50 [1, 5]?
Its EC50 is 46 nM.

What about the EC50 (MRC5 cells [2]) of the same compound?
Its EC50 is 55 nM.

With `O=C1C=CC(O)(c2cc3ccccc3n2S(=O)(=O)c2ccc(CCC(=O)N3CCOCC3)cc2)C=C1` [Compound 21] as the compound, how does the EC50 [1, 5] read?
The EC50 was 36 nM.

And the EC50 (MRC5 cells [2])?
The EC50 was 67 nM.

Which EC50 [4] does the source give for `O=C1C=CC(O)(c2cc3ccc(F)cc3n2S(=O)(=O)c2ccccc2)C=C1` [Compound 13] here?
Its EC50 is 100 nM.
